Data as given in patent publication US12304897B2, “15-PGDH inhibitors” (KYORIN PHARMACEUTICAL CO., LTD., priority 2019, dated 2025).

biological target: recombinant human 15-PGDH (Homo sapiens (Human), UniProt P15428); experiment: 15-PGDH enzyme inhibition test; assay type: biochemical; settings: 4 nM recombinant human 15-PGDH, 30 μM PGE2, 1 mM NAD+, fluorescence 340/440 nm after 60 min
Description: 15-PGDH Enzyme Inhibition Test
Test compounds and 4 nM recombinant human 15-PGDH (R&D systems) in 50 mM Tris-HCl (pH 8.0) containing 0.01% TWEEN 20 (Sigma) and 0.01% bovine gamma globulin (Sigma) were put into 384 Flat Bottom Black plates (Corning, 3820) and allowed to stand for 12 minutes at room temperature. Then, 30 μM PGE2 (Cayman chemical) and 1 mM NAD^+ (Sigma) were added to start reaction. Sixty minutes after the start of reaction, signals were measured at an excitation wavelength of 340 nm and a fluorescence emission wavelength of 440 nm using Synergy 2 (BioTeck). The intensity of the fluorescent signal obtained when an assay buffer was added in place of the test compounds and NAD^+ was defined as 100% and that obtained with the addition of NAD^+ was defined as 0%.

recombinant human 15-PGDH, sequence (P15428 whole entry): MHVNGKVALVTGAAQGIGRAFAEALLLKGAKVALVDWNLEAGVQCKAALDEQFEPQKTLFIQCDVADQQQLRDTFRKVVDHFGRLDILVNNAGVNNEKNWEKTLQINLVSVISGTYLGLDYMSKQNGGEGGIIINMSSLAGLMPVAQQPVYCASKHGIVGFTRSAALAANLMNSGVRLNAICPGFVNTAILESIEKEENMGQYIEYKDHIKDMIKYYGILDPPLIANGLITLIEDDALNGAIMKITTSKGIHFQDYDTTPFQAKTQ

Row | SMILES | IC50
1 | O=C(c1ccc2c(-c3ccc4c(=O)n(CCO)ncc4c3)cccc2c1)N1CCC(F)(F)CC1 [compound 118] | < 3 nM
2 | O=C1NCc2nc(-c3cccc4cc(C(=O)N5CCC(F)(F)CC5)ccc34)ccc21 [compound 101] | < 3 nM
3 | CN1Cc2cc(-c3cccc4cc(C(=O)N5CCC(C(F)(F)F)CC5)ccc34)ccc2C1=O [compound 48] | < 3 nM
4 | CN1Cc2cc(-c3ccc4cc(C(=O)N5CCC(F)(F)CC5)ccc4c3)ccc2C1=O [compound 73] | ≥ 10 nM
5 | Cc1cc(C(N)=O)ccc1-c1cccc2cc(C(=O)N3CCC(F)(F)CC3)ccc12 [compound 53] | 3 to 10 nM
6 | Cn1ncc2cc(-c3cccc4cc(C(=O)N5CCC(F)(F)CC5)ccc34)ccc2c1=O [compound 117] | < 3 nM
7 | CN1Cc2cc(-c3cccc4cc(C(=O)N5CCC[C@H](C(F)(F)F)C5)ccc34)ccc2C1=O [compound 25] | < 3 nM
8 | CN1Cc2cc(-c3ccnc4cc(C(=O)N5CCCCC5)ccc34)ccc2C1=O [compound 98] | < 3 nM
9 | O=C(c1ccc2c(-c3ccc4ncccc4c3)cccc2c1)N1CCC(F)(F)CC1 [compound 76] | < 3 nM
10 | CN1Cc2cc(-c3cccc4cc(C(=O)N5CC6(CCC6)C5)ccc34)cnc2C1=O [compound 150] | < 3 nM
11 | Cn1cnc2cc(-c3cccc4cc(C(=O)N5CCC(F)(F)CC5)ccc34)ccc2c1=O [compound 38] | < 3 nM
12 | C[C@H]1CCCN(C(=O)c2ccc3c(N4CCn5c(nn(CC(F)F)c5=O)C4)cccc3c2)C1 [compound 104] | < 3 nM
13 | O=C(O)c1c(F)cc(-c2cccc3cc(C(=O)N4CCC(F)(F)CC4)ccc23)cc1F [compound 126] | < 3 nM
14 | Cn1ccc2cc(-c3c(F)ccc4cc(C(=O)N5CCC(F)(F)CC5)ccc34)ncc2c1=O [compound 157] | 3 to 10 nM
15 | CN(C)C(=O)c1ccc2c(-c3ccn4c(=O)n(C)nc4c3)cccc2c1 [compound 166] | 3 to 10 nM
16 | Cn1ccc2cc(-c3cccc4cc(C(=O)N5CCC(F)(F)CC5)cnc34)ncc2c1=O [compound 144] | ≥ 10 nM
17 | O=C(c1ccc2c(-c3ccc4c(ccc[n+]4[O-])c3)cccc2c1)N1CCC(F)(F)CC1 [compound 71] | < 3 nM
18 | COCn1nc2cc(-c3cccc4cc(C(=O)N5CCC(F)(F)CC5)ccc34)ccn2c1=O [compound 129] | < 3 nM
19 | Cc1n[nH]c(=O)c2ccc(-c3cccc4cc(C(=O)N5CCC(F)(F)CC5)ccc34)cc12 [compound 83] | < 3 nM
20 | Cn1nc2n(c1=O)CCN(c1cccc3cc(C(=O)N4CCCC5CC54)ccc13)C2 (centres unmarked) [compound 94] | < 3 nM
21 | O=C(c1ccc2c(N3CCn4c(nn(CC(F)F)c4=O)C3)cccc2c1)N1CCC[C@H](C(F)(F)F)C1 [compound 93] | < 3 nM
22 | CCN(CC)C(=O)c1ccc2c(-c3cnc4c(c3)CN(C)C4=O)cccc2c1 [compound 154] | < 3 nM
23 | O=C1NCc2cc(-c3cccc4cc(C(=O)N5CCC(F)(F)CC5)ccc34)ccc21 [compound 24] | < 3 nM
24 | Cn1nc2n(c1=O)CCN(c1cccc3cc(C(=O)N4CCC(F)(F)CC4)ccc13)C2 [compound 75] | < 3 nM
25 | C[C@@H]1CCN(C(=O)c2ccc3c(-c4ccc5c(c4)CN(C)C5=O)cccc3c2)C1 [compound 58] | < 3 nM

Row | SMILES | IC50
26 | Cn1c(=O)[nH]c(=O)c2ccc(-c3cccc4cc(C(=O)N5CCC(F)(F)CC5)cnc34)cc21 [compound 159] | < 3 nM
27 | O=C(c1ccc2c(-c3ccn4c(=O)[nH]nc4c3)cccc2c1)N1CCC(F)(F)CC1 [compound 26] | < 3 nM
28 | O=C(c1ccc2c(N3CCc4ncccc4C3)cccc2c1)N1CCC[C@H](C(F)(F)F)C1 [compound 4] | < 3 nM
29 | Cn1nc2n(c1=O)CCN(c1cccc3cc(C(=O)N4CCCCC4)cnc13)C2 [compound 90] | 3 to 10 nM
30 | C[C@@H]1CCCN(C(=O)c2ccc3c(N4CCc5ncccc5C4)cccc3c2)C1 [compound 91] | < 3 nM
31 | Cc1nc2n(n1)CCN(c1cccc3cc(C(=O)N4CCCCC4)ccc13)C2 [compound 21] | < 3 nM
32 | CC1c2cc(-c3cccc4cc(C(=O)N5CCC(F)(F)CC5)ccc34)ccc2C(=O)N1C (centres unmarked) [compound 10] | < 3 nM
33 | NC(=O)c1ccc(-c2cccc3cc(C(=O)N4CCC(F)(F)CC4)ccc23)cc1F [compound 41] | < 3 nM
34 | C[C@H]1CCCN(C(=O)c2ccc3c(-c4ccc5c(=O)[nH]ccc5c4)cccc3c2)C1 [compound 31] | < 3 nM
35 | CC1CCN(C(=O)c2ccc3c(-c4ccc5c(=O)[nH]ncc5c4)cccc3c2)CC1 [compound 84] | < 3 nM
36 | CN1Cc2cc(-c3cccc4cc(C(=O)N5CCCC5)ccc34)cnc2C1=O [compound 14] | < 3 nM
37 | CN1Cc2cc(-c3cccc4cc(C(=O)N5CCC(F)(F)CC5)ccc34)ccc2C1=O [compound 1] | < 3 nM
38 | Cn1cnc2c1CCN(c1cccc3cc(C(=O)N4CCCCC4)ccc13)C2 [compound 95] | 3 to 10 nM
39 | Cc1c(-c2cccc3cc(C(=O)N4CCC(F)(F)CC4)ccc23)ccc2ncccc12 [compound 13] | 3 to 10 nM
40 | CN1Cc2cc(-c3ccnc4cc(C(=O)N5CCC(F)(F)CC5)ccc34)ccc2C1=O [compound 42] | < 3 nM
41 | O=C(c1ccc2c(-c3ccc4c(=O)[nH]ncc4c3)c(F)ccc2c1)N1CCC(F)(F)CC1 [compound 87] | < 3 nM
42 | O=C(c1ccc2c(-c3cc4cc[nH]c(=O)c4cn3)cccc2c1)N1CCC(F)(F)CC1 [compound 111] | < 3 nM
43 | O=C(c1ccc2c(-c3ccc4c(=O)[nH]ccc4c3)c(F)ccc2c1)N1CCC(F)(F)CC1 [compound 49] | < 3 nM
44 | O=C(c1ccc2c(N3CCc4c(cc[nH]c4=O)C3)cccc2c1)N1CCCCC1 [compound 62] | < 3 nM
45 | CN1C(=O)c2ccc(-c3cccc4cc(C(=O)N5CCC(F)(F)CC5)ccc34)cc2C1(C)C [compound 27] | < 3 nM
46 | O=C(O)c1ncc(-c2cccc3cc(C(=O)N4CCC(F)(F)CC4)ccc23)cc1F [compound 130] | < 3 nM
47 | CN1Cc2cc(-c3cccc4cc(C(=O)N5CC=CCC5)ccc34)cnc2C1=O [compound 152] | < 3 nM
48 | O=C(c1ccc2c(-c3ccc4c[nH]c(=O)cc4c3)cccc2c1)N1CCC(F)(F)CC1 [compound 114] | 3 to 10 nM
49 | Cn1cc2c(n1)CCN(c1cccc3cc(C(=O)N4CCCCC4)ccc13)C2 [compound 52] | 3 to 10 nM
50 | Cn1ccc2cc(-c3c(F)ccc4cc(C(=O)N5CCC(F)(F)CC5)ccc34)ccc2c1=O [compound 158] | < 3 nM

Row | SMILES | IC50
51 | O=C(O)c1ccc(-c2cccc3cc(C(=O)N4CCC(F)(F)CC4)ccc23)cc1F [compound 68] | < 3 nM
52 | C[C@H]1CCCN(C(=O)c2ccc3c(-c4cnc5c(c4)CN(C)C5=O)cccc3c2)C1 [compound 72] | < 3 nM
53 | O=C(c1ccc2c(N3CCc4ncccc4C3)cccc2c1)N1CCCC2(CC2)C1 [compound 105] | < 3 nM
54 | CN1Cc2cc(-c3cccc4cc(C(=O)N5CCCC(C)(C)C5)ccc34)ccc2C1=O [compound 8] | < 3 nM
55 | O=C(c1ccc2c(N3CCn4c(nn(CC(F)F)c4=O)C3)cccc2c1)N1CCCCC1 [compound 19] | < 3 nM
56 | O=C(c1cnc2c(-c3ccn4c(=O)ccnc4c3)cccc2c1)N1CCC(F)(F)CC1 [compound 160] | < 3 nM
57 | CN1Cc2cc(-c3c(F)ccc4cc(C(=O)N5CCC(F)(F)CC5)ccc34)cnc2C1=O [compound 85] | 3 to 10 nM
58 | Cn1cnc2cc(-c3cccc4cc(C(=O)N5CCC(F)(F)CC5)cnc34)ccc2c1=O [compound 164] | < 3 nM
59 | CN1Cc2cc(-c3cccc4cc(C(=O)N5CCCC5)ccc34)ccc2C1=O [compound 43] | < 3 nM
60 | CS(=O)(=O)CCn1ncc2cc(-c3cccc4cc(C(=O)N5CCC(F)(F)CC5)ccc34)ccc2c1=O [compound 161] | < 3 nM
61 | Cn1ccc2cc(-c3cccc4cc(C(=O)N5CCC(F)(F)CC5)cnc34)ccc2c1=O [compound 143] | < 3 nM
62 | O=C(c1cnc2c(-c3ccc4c(=O)[nH]oc4c3)cccc2c1)N1CCC(F)(F)CC1 [compound 141] | < 3 nM
63 | O=C(c1ccc2c(-c3ccn4c(=O)ccnc4c3)cccc2c1)N1CCC(F)(F)CC1 [compound 18] | < 3 nM
64 | O=C(c1ccc2c(N3CCn4c(nn(CC(F)F)c4=O)C3)cccc2c1)N1CCCC2CC21 (centres unmarked) [compound 6] | < 3 nM
65 | C[C@H]1CCCN(C(=O)c2ccc3c(N4CCn5c(nn(C)c5=O)C4)cccc3c2)C1 [compound 103] | < 3 nM
66 | CN1Cc2cc(-c3cccc4nc(C(=O)N5CCCCC5)ccc34)ccc2C1=O [compound 70] | ≥ 10 nM
67 | COCn1ncc2cc(-c3cccc4cc(C(=O)N5CCC(F)(F)CC5)ccc34)ccc2c1=O [compound 45] | < 3 nM
68 | O=C(c1ccc2c(-c3ccn4c(=O)[nH]nc4c3)cccc2c1)N1CCCCC1 [compound 109] | < 3 nM
69 | O=C(c1ccc2c(-c3ccc4c(c3)CN(CCO)C4=O)cccc2c1)N1CCC(F)(F)CC1 [compound 30] | < 3 nM
70 | CN1Cc2cc(-c3cccc4cc(C(=O)N5C[C@H]6CCC[C@H]6C5)ccc34)cnc2C1=O [compound 153] | < 3 nM
71 | O=C(c1ccc2c(-c3cnc4c(=O)[nH]cnc4c3)cccc2c1)N1CCC(F)(F)CC1 [compound 128] | < 3 nM
72 | C[C@H]1CCCN(C(=O)c2ccc3c(-c4ccc5c(=O)[nH]ncc5c4)cccc3c2)C1 [compound 81] | < 3 nM
73 | C[C@H]1CCCN(C(=O)c2ccc3c(N4CCc5c(cc[nH]c5=O)C4)cccc3c2)C1 [compound 60] | < 3 nM
74 | O=C(c1ccc2c(-c3cnc4c(=O)[nH]ncc4c3)c(F)ccc2c1)N1CCC(F)(F)CC1 [compound 102] | 3 to 10 nM
